Assay results as given in patent publication US12459922B2 (Gilead Sciences, Inc., priority 2022, dated 2025).

Test system: endogenous cellular STAT1 (phosphorylated at Tyr701) in NCI-H1373 cells
Assay: Phospho-STAT1 (Tyr701) LANCE Ultra TR-FRET Detection Assay
Type: cell-based
Conditions: Homo sapiens, NCI-H1373, 48 h, phospho-STAT1 (Tyr701) induction, read-out: NH1373 pSTAT1 EC50

Structure (SMILES) | EC50
O=c1[nH]ncc(N[C@H]2CCC[C@@H](Cn3ccc4cc(-c5cnc(C(F)(F)F)cn5)c(F)cc4c3=O)C2)c1C(F)(F)F [Example 256, 7-fluoro-2-(((1R,3S)-3-((6-oxo-5-(trifluoromethyl)-1,6-dihydropyridazin-4-yl)amino)cyclohexyl)methyl)-6-(5-(trifluoromethyl)pyrazin-2-yl)isoquinolin-1(2H)-one] | 30.2 nM
O=c1[nH]ncc(N[C@H]2CCC[C@@H](Cn3ccc4cc(-c5cnc(C(F)F)cn5)c(F)cc4c3=O)C2)c1C(F)(F)F [Example 258, 6-(5-(difluoromethyl)pyrazin-2-yl)-7-fluoro-2-(((1R,3S)-3-((6-oxo-5-(trifluoromethyl)-1,6-dihydropyridazin-4-yl)amino)cyclohexyl)methyl)isoquinolin-1(2H)-one] | 31.7 nM
O=c1[nH]ncc(N[C@H]2CCC[C@@H](Cn3ccc4cc(-c5cnc(OC(F)F)cn5)c(F)cc4c3=O)C2)c1C(F)(F)F [Example 259, 6-(5-(difluoromethoxy)pyrazin-2-yl)-7-fluoro-2-(((1R,3S)-3-((6-oxo-5-(trifluoromethyl)-1,6-dihydropyridazin-4-yl)amino)cyclohexyl)methyl)isoquinolin-1(2H)-one] | 183 nM
Nc1nc(-c2cc3ncn(C[C@@H]4CCC[C@H](Nc5cn[nH]c(=O)c5C(F)(F)F)C4)c(=O)c3cc2F)ncc1Cl [Example 261, 7-(4-amino-5-chloropyrimidin-2-yl)-6-fluoro-3-(((1R,3S)-3-((6-oxo-5-(trifluoromethyl)-1,6-dihydropyridazin-4-yl)amino)cyclohexyl)methyl)quinazolin-4(3H)-one] | 6.1 nM
O=c1[nH]ncc(N[C@H]2CCC[C@@H](Cn3ccc4cc(-c5cnc(C6COC6)cn5)c(F)cc4c3=O)C2)c1C(F)(F)F [Example 266, 7-fluoro-6-(5-(oxetan-3-yl)pyrazin-2-yl)-2-(((1R,3S)-3-((6-oxo-5-(trifluoromethyl)-1,6-dihydropyridazin-4-yl)amino)cyclohexyl)methyl)isoquinolin-1(2H)-one] | 187 nM
CC(C)(O)c1cnc(-c2cc3ccn(C[C@@H]4CCC[C@H](Nc5cn[nH]c(=O)c5C(F)(F)F)C4)c(=O)c3cc2F)cn1 [Example 267, 7-fluoro-6-(5-(2-hydroxypropan-2-yl)pyrazin-2-yl)-2-(((1R,3S)-3-((6-oxo-5-(trifluoromethyl)-1,6-dihydropyridazin-4-yl)amino)cyclohexyl)methyl)isoquinolin-1(2H)-one] | 80.2 nM
O=c1[nH]ncc(N[C@H]2CCC[C@@H](Cn3ccc4cc(-c5ccc(C(F)(F)F)cn5)c(F)cc4c3=O)C2)c1C(F)(F)F [Example 268, 7-fluoro-2-(((1R,3S)-3-((6-oxo-5-(trifluoromethyl)-1,6-dihydropyridazin-4-yl)amino)cyclohexyl)methyl)-6-(5-(trifluoromethyl)pyridin-2-yl)isoquinolin-1(2H)-one] | 13 nM
Nc1nc(-c2cc3ccn(C[C@@H]4CCC[C@H](Nc5cn[nH]c(=O)c5C(F)(F)F)C4)c(=O)c3cc2F)ccc1C(F)F [Example 269, 6-(6-amino-5-(difluoromethyl)pyridin-2-yl)-7-fluoro-2-(((1R,3S)-3-((6-oxo-5-(trifluoromethyl)-1,6-dihydropyridazin-4-yl)amino)cyclohexyl)methyl)isoquinolin-1(2H)-one] | 54.3 nM
O=c1[nH]ncc(N[C@H]2CCC[C@@H](Cn3ccc4cc(-c5cnc(C6CC6)cn5)c(F)cc4c3=O)C2)c1C(F)(F)F [Example 270, 6-(5-cyclopropylpyrazin-2-yl)-7-fluoro-2-(((1R,3S)-3-((6-oxo-5-(trifluoromethyl)-1,6-dihydropyridazin-4-yl)amino)cyclohexyl)methyl)isoquinolin-1(2H)-one] | 149 nM
Nc1cc(-c2cc3ccn(C[C@@H]4CCC[C@H](Nc5cn[nH]c(=O)c5C(F)(F)F)C4)c(=O)c3cc2F)cnc1C(F)(F)F [Example 271, 6-(5-amino-6-(trifluoromethyl)pyridin-3-yl)-7-fluoro-2-(((1R,3S)-3-((6-oxo-5-(trifluoromethyl)-1,6-dihydropyridazin-4-yl)amino)cyclohexyl)methyl)isoquinolin-1(2H)-one] | 211 nM
O=c1[nH]ncc(N[C@H]2CCC[C@@H](Cn3ccc4cc(-c5nccc(C(F)(F)F)n5)c(F)cc4c3=O)C2)c1C(F)(F)F [Example 272, 7-fluoro-2-(((1R,3S)-3-((6-oxo-5-(trifluoromethyl)-1,6-dihydropyridazin-4-yl)amino)cyclohexyl)methyl)-6-(4-(trifluoromethyl)pyrimidin-2-yl)isoquinolin-1(2H)-one] | 10000 nM
O=c1[nH]ncc(N[C@H]2CCC[C@@H](Cn3ccc4nc(-c5ccc(C(F)(F)F)cn5)ccc4c3=O)C2)c1C(F)(F)F [Example 273, 6-(((1R,3S)-3-((6-oxo-5-(trifluoromethyl)-1,6-dihydropyridazin-4-yl)amino)cyclohexyl)methyl)-2-(5-(trifluoromethyl)pyridin-2-yl)-1,6-naphthyridin-5(6H)-one] | 10000 nM
CNc1cnc(-c2cc3ccn(C[C@@H]4CCC[C@H](Nc5cn[nH]c(=O)c5C(F)(F)F)C4)c(=O)c3cc2F)cn1 [Example 274, 7-fluoro-6-(5-(methylamino)pyrazin-2-yl)-2-(((1R,3S)-3-((6-oxo-5-(trifluoromethyl)-1,6-dihydropyridazin-4-yl)amino)cyclohexyl)methyl)isoquinolin-1(2H)-one] | 78 nM
NC1(c2cnc(-c3cc4ccn(C[C@@H]5CCC[C@H](Nc6cn[nH]c(=O)c6C(F)(F)F)C5)c(=O)c4cc3F)cn2)COC1 [Example 275, 6-(5-(3-aminooxetan-3-yl)pyrazin-2-yl)-7-fluoro-2-(((1R,3S)-3-((6-oxo-5-(trifluoromethyl)-1,6-dihydropyridazin-4-yl)amino)cyclohexyl)methyl)isoquinolin-1(2H)-one] | 200 nM
CCNc1cnc(-c2cc3ccn(C[C@@H]4CCC[C@H](Nc5cn[nH]c(=O)c5C(F)(F)F)C4)c(=O)c3cc2F)cn1 [Example 277, 6-(5-(ethylamino)pyrazin-2-yl)-7-fluoro-2-(((1R,3S)-3-((6-oxo-5-(trifluoromethyl)-1,6-dihydropyridazin-4-yl)amino)cyclohexyl)methyl)isoquinolin-1(2H)-one] | 348 nM

Next, values leading:

EC50 | Structure (SMILES)
9.1 nM | COc1cnc(-c2cc3ccn(C[C@@H]4CCC[C@H](Nc5cn[nH]c(=O)c5C(F)(F)F)C4)c(=O)c3cc2F)nc1N [Example 255, 6-(4-amino-5-methoxypyrimidin-2-yl)-7-fluoro-2-(((1R,3S)-3-((6-oxo-5-(trifluoromethyl)-1,6-dihydropyridazin-4-yl)amino)cyclohexyl)methyl)isoquinolin-1(2H)-one]
25.1 nM | Nc1nc(-c2cc3ccn(C[C@@H]4CCC[C@H](Nc5cn[nH]c(=O)c5C(F)(F)F)C4)c(=O)c3c(F)c2F)cnc1C(F)(F)F [Example 257, 6-(6-amino-5-(trifluoromethyl)pyrazin-2-yl)-7,8-difluoro-2-(((1R,3S)-3-((6-oxo-5-(trifluoromethyl)-1,6-dihydropyridazin-4-yl)amino)cyclohexyl)methyl)isoquinolin-1(2H)-one]
12.7 nM | Nc1nc(-c2cc3ccn(C[C@@H]4CCC[C@H](Nc5cn[nH]c(=O)c5C(F)(F)F)C4)c(=O)c3cc2F)ncc1OC(F)F [Example 260, 6-(4-amino-5-(difluoromethoxy)pyrimidin-2-yl)-7-fluoro-2-(((1R,3S)-3-((6-oxo-5-(trifluoromethyl)-1,6-dihydropyridazin-4-yl)amino)cyclohexyl)methyl)isoquinolin-1(2H)-one]
193 nM | Cc1ncc(-c2cc3ccn(C[C@@H]4CCC[C@H](Nc5cn[nH]c(=O)c5C(F)(F)F)C4)c(=O)c3cc2F)nc1N [Example 262, 6-(6-amino-5-methylpyrazin-2-yl)-7-fluoro-2-(((1R,3S)-3-((6-oxo-5-(trifluoromethyl)-1,6-dihydropyridazin-4-yl)amino)cyclohexyl)methyl)isoquinolin-1(2H)-one]
122 nM | COc1ncc(-c2cc3ccn(C[C@@H]4CCC[C@H](Nc5cn[nH]c(=O)c5C(F)(F)F)C4)c(=O)c3cc2F)nc1N [Example 263, 6-(6-amino-5-methoxypyrazin-2-yl)-7-fluoro-2-(((1R,3S)-3-((6-oxo-5-(trifluoromethyl)-1,6-dihydropyridazin-4-yl)amino)cyclohexyl)methyl)isoquinolin-1(2H)-one]
76.1 nM | Nc1nc(-c2cc3ccn(C[C@@H]4CCC[C@H](Nc5cn[nH]c(=O)c5C(F)(F)F)C4)c(=O)c3cc2F)cnc1C(F)F [Example 264, 6-(6-amino-5-(difluoromethyl)pyrazin-2-yl)-7-fluoro-2-(((1R,3S)-3-((6-oxo-5-(trifluoromethyl)-1,6-dihydropyridazin-4-yl)amino)cyclohexyl)methyl)isoquinolin-1(2H)-one]
52.3 nM | Nc1nc(-c2cc3ncn(C[C@@H]4CCC[C@H](Nc5cn[nH]c(=O)c5C(F)(F)F)C4)c(=O)c3cc2F)ncc1OC(F)F [Example 265, 7-(4-amino-5-(difluoromethoxy)pyrimidin-2-yl)-6-fluoro-3-(((1R,3S)-3-((6-oxo-5-(trifluoromethyl)-1,6-dihydropyridazin-4-yl)amino)cyclohexyl)methyl)quinazolin-4(3H)-one]
10.3 nM | Cc1nc(-c2cc3ccn(C[C@@H]4CCC[C@H](Nc5cn[nH]c(=O)c5C(F)(F)F)C4)c(=O)c3cc2F)nc(N)c1Cl [Example 276, 6-(4-amino-5-chloro-6-methylpyrimidin-2-yl)-7-fluoro-2-(((1R,3S)-3-((6-oxo-5-(trifluoromethyl)-1,6-dihydropyridazin-4-yl)amino)cyclohexyl)methyl)isoquinolin-1(2H)-one]
4.38 nM | COc1cnc(-c2cc3ccn(C[C@@H]4CCC[C@H](Nc5cn[nH]c(=O)c5C(F)(F)F)C4)c(=O)c3c(F)c2F)nc1N [Example 278, 6-(4-amino-5-methoxypyrimidin-2-yl)-7,8-difluoro-2-(((1R,3S)-3-((6-oxo-5-(trifluoromethyl)-1,6-dihydropyridazin-4-yl)amino)cyclohexyl)methyl)isoquinolin-1(2H)-one]
